Columns and labels:
[1] = target: High-affinity choline transporter 1 (Rattus norvegicus) (UniProt Q9JMD7); experiment: Inhibition constant of high-affinity choline uptake
[2] = target: High-affinity choline transporter 1 (Rattus norvegicus) (UniProt Q9JMD7); experiment: Inhibition of high affinity choline uptake at concentration of 1 uM
[3] = Enzyme inhibition dissociation constant for choline acetyl transferase (ChAcT) was determined

Sequence of High-affinity choline transporter 1 (Rattus norvegicus) (Q9JMD7 whole entry, looked up): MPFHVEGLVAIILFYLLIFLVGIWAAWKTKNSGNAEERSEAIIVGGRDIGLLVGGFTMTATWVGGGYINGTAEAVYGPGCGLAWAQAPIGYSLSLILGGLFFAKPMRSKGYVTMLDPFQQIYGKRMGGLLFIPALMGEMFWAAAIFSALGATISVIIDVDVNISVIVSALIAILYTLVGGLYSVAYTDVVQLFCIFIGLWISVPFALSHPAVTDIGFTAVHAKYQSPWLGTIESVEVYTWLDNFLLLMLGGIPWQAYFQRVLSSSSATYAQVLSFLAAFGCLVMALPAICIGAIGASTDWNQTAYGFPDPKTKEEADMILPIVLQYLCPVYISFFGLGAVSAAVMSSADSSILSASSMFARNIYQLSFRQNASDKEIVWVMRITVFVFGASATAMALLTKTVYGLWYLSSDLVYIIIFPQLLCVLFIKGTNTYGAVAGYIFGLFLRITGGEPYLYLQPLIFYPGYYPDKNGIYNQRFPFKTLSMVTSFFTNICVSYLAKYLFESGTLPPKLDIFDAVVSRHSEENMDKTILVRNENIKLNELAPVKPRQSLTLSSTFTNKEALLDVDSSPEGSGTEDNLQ

| SMILES | Ki [1] [µM] | IC50 [2] [µM] | Ki [3] [µM] |
| --- | --- | --- | --- |
| C[N+](C)(C)CC(O)c1ccc(O)c(O)c1 (stereo not given) [[2-(3,4-Dihydroxy-phenyl)-2-hydroxy-ethyl]-trimethyl-ammonium; iodide] | 130 | 221 |  |
| C[N+](C)(C)c1cccc(O)c1O [(2,3-Dihydroxy-phenyl)-trimethyl-ammonium; iodide] | 60 | 83 | 15000 |
